Results taken from US10077261B2, “Imidazolin-5-one derivative useful as FASN inhibitors for the treatment of cancer” (Janssen Pharmaceutica NV, priority 2012, dated 2018).

Legend:
A2780 ovarian cells [1] = experiment: A2780 ovarian cell proliferation assay in lipid reduced medium, with palmitate (MTT); assay type: cell-based; details: Homo sapiens, A2780, 96 h; read-out: pIC50 A2780 Ovarian Cell, With Palmitate (converted)
Procedure, shortened: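 Seeded cells were switched next day to lipid-reduced serum, exposed to compound and 25 μM palmitate complexed with fatty-acid-free BSA, and incubated 96 h. Proliferation was then determined by MTT absorbance at 544 nm, with a best-fit curve of signal against concentration.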

[2] = target: T1, hFASN enzyme (full length) (Homo sapiens, UniProt P49327); experiment: Fatty Acid Synthase (FASN) inhibition scintillation proximity assay; assay type: biochemical; details: for inhibition at 10 µM: read-out: Human FASN % inhibition @ 10 μM, 10 μM test compound; for IC50: read-out: Human FASN pIC50 (converted)
T1 construct: 10 μL hFASN enzyme (full length, 300 ng, purified in house); made in house
T1 sequence (P49327 whole entry): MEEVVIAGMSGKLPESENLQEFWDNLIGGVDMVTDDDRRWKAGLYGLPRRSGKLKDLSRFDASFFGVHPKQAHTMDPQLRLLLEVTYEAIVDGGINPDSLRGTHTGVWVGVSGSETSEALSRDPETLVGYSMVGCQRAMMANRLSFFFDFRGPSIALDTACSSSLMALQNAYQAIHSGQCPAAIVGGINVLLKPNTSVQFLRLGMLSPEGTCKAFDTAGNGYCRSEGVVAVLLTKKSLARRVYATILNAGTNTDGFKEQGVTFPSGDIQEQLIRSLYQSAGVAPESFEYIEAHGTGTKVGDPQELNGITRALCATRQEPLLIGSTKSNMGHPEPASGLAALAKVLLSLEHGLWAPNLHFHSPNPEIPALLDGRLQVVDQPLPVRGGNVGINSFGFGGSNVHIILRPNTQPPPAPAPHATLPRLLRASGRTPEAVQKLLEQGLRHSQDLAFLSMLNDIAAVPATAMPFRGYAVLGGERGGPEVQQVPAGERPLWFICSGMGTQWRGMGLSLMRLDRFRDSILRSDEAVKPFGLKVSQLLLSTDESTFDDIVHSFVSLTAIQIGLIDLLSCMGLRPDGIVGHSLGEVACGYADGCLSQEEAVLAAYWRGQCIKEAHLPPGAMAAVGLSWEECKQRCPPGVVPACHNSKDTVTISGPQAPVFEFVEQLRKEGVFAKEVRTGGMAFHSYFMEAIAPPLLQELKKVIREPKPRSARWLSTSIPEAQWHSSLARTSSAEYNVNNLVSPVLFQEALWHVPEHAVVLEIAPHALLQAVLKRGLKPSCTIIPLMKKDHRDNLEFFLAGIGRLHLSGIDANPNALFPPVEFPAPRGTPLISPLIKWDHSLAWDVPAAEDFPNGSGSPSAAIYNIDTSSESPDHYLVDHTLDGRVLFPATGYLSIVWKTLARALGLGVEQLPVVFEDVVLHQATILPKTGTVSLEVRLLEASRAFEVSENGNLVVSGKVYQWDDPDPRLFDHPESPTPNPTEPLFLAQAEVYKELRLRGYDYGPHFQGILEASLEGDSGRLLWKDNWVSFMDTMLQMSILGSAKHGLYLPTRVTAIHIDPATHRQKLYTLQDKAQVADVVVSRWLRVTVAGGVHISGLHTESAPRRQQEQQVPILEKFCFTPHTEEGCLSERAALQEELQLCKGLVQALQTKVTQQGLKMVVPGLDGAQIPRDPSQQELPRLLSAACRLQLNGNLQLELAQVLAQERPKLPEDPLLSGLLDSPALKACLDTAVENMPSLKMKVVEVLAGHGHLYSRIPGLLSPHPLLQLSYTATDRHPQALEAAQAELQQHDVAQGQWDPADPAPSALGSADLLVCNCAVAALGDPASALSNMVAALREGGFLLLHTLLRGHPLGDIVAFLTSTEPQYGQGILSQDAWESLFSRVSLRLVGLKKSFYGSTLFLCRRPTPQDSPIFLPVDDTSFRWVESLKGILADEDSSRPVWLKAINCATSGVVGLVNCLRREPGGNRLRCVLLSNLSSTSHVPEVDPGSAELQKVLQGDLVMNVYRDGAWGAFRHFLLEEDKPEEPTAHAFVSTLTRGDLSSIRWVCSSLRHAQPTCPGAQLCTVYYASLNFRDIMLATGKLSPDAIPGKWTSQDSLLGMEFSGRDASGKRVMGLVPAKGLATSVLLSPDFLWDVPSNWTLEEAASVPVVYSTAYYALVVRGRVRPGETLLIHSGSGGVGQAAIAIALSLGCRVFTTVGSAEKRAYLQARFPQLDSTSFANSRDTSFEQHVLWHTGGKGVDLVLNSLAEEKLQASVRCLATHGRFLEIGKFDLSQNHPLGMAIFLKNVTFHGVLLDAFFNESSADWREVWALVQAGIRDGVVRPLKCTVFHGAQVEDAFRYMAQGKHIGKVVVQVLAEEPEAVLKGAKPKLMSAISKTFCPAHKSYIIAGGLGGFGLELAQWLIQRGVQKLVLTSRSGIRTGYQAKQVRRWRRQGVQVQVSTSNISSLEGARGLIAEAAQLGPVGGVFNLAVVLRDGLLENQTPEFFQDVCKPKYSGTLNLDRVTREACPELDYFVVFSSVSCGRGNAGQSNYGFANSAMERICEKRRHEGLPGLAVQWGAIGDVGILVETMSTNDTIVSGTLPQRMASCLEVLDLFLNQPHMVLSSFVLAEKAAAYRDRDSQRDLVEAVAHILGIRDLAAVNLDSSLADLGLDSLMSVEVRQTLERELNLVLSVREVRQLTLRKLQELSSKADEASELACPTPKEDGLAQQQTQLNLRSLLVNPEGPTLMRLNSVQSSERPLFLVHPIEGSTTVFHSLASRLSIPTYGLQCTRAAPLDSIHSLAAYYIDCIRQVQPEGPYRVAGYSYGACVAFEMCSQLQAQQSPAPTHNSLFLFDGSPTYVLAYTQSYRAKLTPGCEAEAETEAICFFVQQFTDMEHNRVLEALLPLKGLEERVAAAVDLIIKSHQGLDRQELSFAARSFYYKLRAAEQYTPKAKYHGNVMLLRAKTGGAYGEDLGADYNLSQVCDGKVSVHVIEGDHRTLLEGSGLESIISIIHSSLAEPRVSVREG
Procedure, shortened: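 Full-length in-house purified enzyme (300 ng) was tested in 100 mM KH2PO4 pH 7.5, 1 mM DTT with ³H-acetyl-CoA and malonyl-CoA as substrates; compounds ranged 0.01–30 μM. Reactions were stopped with streptavidin imaging beads, read by LEADseeker at 610 nm, and fitted to a 4-parameter logistic curve.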

[3] = system: PC-3M-Luc-C6 prostate cells; experiment: In vitro PC-3M-Luc-C6 prostate cell proliferation assay in lipid reduced medium; assay type: cell-based; details: 96 h, read-out: pIC50 PC-3M-Luc-C6 prostate cell (converted)
[4] = system: LNCaP-Vancouver prostate cells; experiment: In vitro LNCaP Vancouver prostate cell proliferation assay in lipid reduced medium; assay type: cell-based; details: read-out: pIC50 LNCaP_Vancouver prostate cell (converted)
[5] = target: Fatty Acid Synthase Keto-reductase Domain (FASN KR) (Homo sapiens, UniProt P49327); experiment: Fatty Acid Synthase keto-reductase domain (FASN KR) inhibition, NADPH oxidation at 340 nm
Fatty Acid Synthase Keto-reductase Domain (FASN KR), sequence (P49327 whole entry, the tested form may be a part): as the sequence (P49327 whole entry) above
Method: After 20 minutes incubation at room temperature the plate was measured again (T2).
The decrease in absorbance was calculated as (Absorbance before incubation T1)−(Absorbance following incubation T2).
A plot of Controlmin versus test compound concentration was fitted to a 4-parameter logistic curve using a non-linear least squares regression method.

A2780 ovarian cells [6] = experiment: A2780 ovarian cell proliferation assay in lipid reduced medium, without palmitate (MTT); assay type: cell-based; details: Homo sapiens, A2780, 96 h; read-out: pIC50 A2780 Ovarian Cell, Without Palmitate (converted)

Cc1cc(-c2ccc(-c3ccn(CC(C)C)n3)cc2)ccc1C1=NC2(CC2)C(=O)N1CC1CN(C(=O)C2(C)CC2)C1 [compound 602, 6-({1-[(1-Methylcyclopropyl)carbonyl]azetidin-3-yl}methyl)-5-{3-methyl-4′-[1-(2-methylpropyl)-1H-pyrazol-3-yl]biphenyl-4-yl}-4,6-diazaspiro[2.4]hept-4-en-7-one]
IC50 (A2780 ovarian cells [1]): 6170 nM
inhibition at 10 µM [2]: 94%
IC50 [2]: 324 nM
IC50 [3]: 692 nM
IC50 [4]: 1480 nM
IC50 [5]: 1550 nM
IC50 (A2780 ovarian cells [6]): 380 nM

Cc1cc(-c2ccc3ccc(C#N)nc3c2)ccc1C1=NC2(CC2)C(=O)N1CC1CN(C(=O)C2(C)CC2)C1 [compound 604, 7-{3-Methyl-4-[6-({1-[(1-methylcyclopropyl)carbonyl]azetidin-3-yl}methyl)-7-oxo-4,6-diazaspiro[2.4]hept-4-en-5-yl]phenyl}quinoine-2-carbonitrile]
IC50 (A2780 ovarian cells [1]): ~10000 nM
inhibition at 10 µM [2]: 84%
IC50 [2]: 1120 nM
IC50 [3]: 4170 nM
IC50 [4]: > 10000 nM
IC50 [5]: 8710 nM
IC50 (A2780 ovarian cells [6]): 2340 nM

Cn1nc(Cl)c2ccc(-c3ccc(C4=NC5(CC5)C(=O)N4CC4CN(C(=O)C5CC5)C4)c(F)c3)cc21 [compound 606, 5-[4-(3-Chloro-1-methyl-1H-indazol-6-yl)-2-fluorophenyl]-6-{[1-(cyclopropylcarbonyl)azetidin-3-yl]methyl}-4,6-diazaspiro[2.4]hept-4-en-7-one]
IC50 (A2780 ovarian cells [1]): > 10000 nM
inhibition at 10 µM [2]: 97%
IC50 [2]: 209 nM
IC50 [3]: 1120 nM
IC50 [4]: 2400 nM
IC50 [5]: 1450 nM
IC50 (A2780 ovarian cells [6]): 1230 nM

Cn1nc(Cl)c2cc(-c3ccc(C4=NC5(CC5)C(=O)N4CC4CN(C(=O)C5CC5)C4)c(F)c3)ccc21 [compound 607, 5-[4-(3-Chloro-1-methyl-1H-indazol-5-yl)-2-fluorophenyl]-6-{[1-(cyclopropylcarbonyl)azetidin-3-yl]methyl}-4,6-diazaspiro[2.4]hept-4-en-7-one]
IC50 (A2780 ovarian cells [1]): > 10000 nM
inhibition at 10 µM [2]: 102%
IC50 [2]: 158 nM
IC50 [3]: 178 nM
IC50 [4]: 1100 nM
IC50 [5]: 537 nM
IC50 (A2780 ovarian cells [6]): 646 nM

Cn1nc(CO)c2cc(-c3ccc(C4=NC5(CC5)C(=O)N4CC4CN(C(=O)C5CC5)C4)c(F)c3)ccc21 [compound 609, 6-{[1-(Cyclopropylcarbonyl)azetidin-3-yl]methyl}-5-{2-fluoro-4-[3-(hydroxymethyl)-1-methyl-1H-indazol-5-yl]phenyl}-4,6-diazaspiro[2.4]hept-4-en-7-one]
IC50 (A2780 ovarian cells [1]): > 10000 nM
inhibition at 10 µM [2]: 99%
IC50 [2]: 186 nM
IC50 [3]: 661 nM
IC50 [4]: 4790 nM
IC50 [5]: 676 nM
IC50 (A2780 ovarian cells [6]): ~263 nM

Cc1cc(-c2cccc(NS(=O)(=O)C3CC3)c2)ccc1C1=NC2(CC2)C(=O)N1C[C@@H]1CCN(C(=O)C2CC2)C1 [compound 613, N-[4′-(6-{[(3R)-1-(Cyclopropylcarbonyl)pyrrolidin-3-yl]methyl}-7-oxo-4,6-diazaspiro[2.4]hept-4-en-5-yl)-3′-methylbiphenyl-3-yl]cyclopropanesulfonamide]
IC50 (A2780 ovarian cells [1]): > 10000 nM
inhibition at 10 µM [2]: 102%
IC50 [2]: 115 nM
IC50 [3]: 97.7 nM
IC50 [4]: 851 nM
IC50 [5]: 229 nM
IC50 (A2780 ovarian cells [6]): 107 nM

O=C(Nc1cccc(-c2ccc(C3=NC4(CC4)C(=O)N3CC3CN(C(=O)C4CC4)C3)c(F)c2)c1)C1CC1 [compound 615, N-[4′-(6-{[1-(Cyclopropylcarbonyl)azetidin-3-yl]methyl}-7-oxo-4,6-diazaspiro[2.4]hept-4-en-5-yl)-3′-fluorobiphenyl-3-yl]cyclopropanecarboxamide]
IC50 (A2780 ovarian cells [1]): > 10000 nM
inhibition at 10 µM [2]: 98%
IC50 [2]: 324 nM
IC50 [3]: ~2340 nM
IC50 [4]: 3240 nM
IC50 [5]: 1050 nM
IC50 (A2780 ovarian cells [6]): 501 nM

N#Cc1ccc2ccc(-c3ccc(C4=NC5(CC5)C(=O)N4CC4CN(C(=O)C5CC5)C4)c(F)c3)cc2c1 [compound 616, 7-[4-(6-{[1-(Cyclopropylcarbonyl)azetidin-3-yl]methyl}-7-oxo-4,6-diazaspiro[2.4]hept-4-en-5-yl)-3-fluorophenyl]naphthalene-2-carbonitrile]
IC50 (A2780 ovarian cells [1]): > 10000 nM
inhibition at 10 µM [2]: 94%
IC50 [2]: 513 nM
IC50 [3]: > 10000 nM
IC50 [4]: 3160 nM
IC50 [5]: 1550 nM
IC50 (A2780 ovarian cells [6]): 1820 nM

COc1ccc2ccc(-c3ccc(C4=NC5(CC5)C(=O)N4CC4CN(C(=O)C5(O)CC5)C4)c(F)c3)cc2c1 [compound 617, 5-[2-Fluoro-4-(7-methoxynaphthalen-2-yl)phenyl]-6-({1-[(1-hydroxycyclopropyl)carbonyl]azetidin-3-yl}methyl)-4,6-diazaspiro[2.4]hept-4-en-7-one]
IC50 (A2780 ovarian cells [1]): > 10000 nM
inhibition at 10 µM [2]: 100%
IC50 [2]: 166 nM
IC50 [3]: 646 nM
IC50 [4]: 2570 nM
IC50 [5]: 631 nM
IC50 (A2780 ovarian cells [6]): 245 nM

COc1ccc2ccc(-c3ccc(C4=NC5(CC5)C(=O)N4CC4CN(C(=O)C5CC5)C4)c(F)c3)cc2c1 [compound 618, 6-{[1-(Cyclopropylcarbonyl)azetidin-3-yl]methyl}-5-[2-fluoro-4-(7-methoxynaphthalen-2-yl)phenyl]-4,6-diazaspiro[2.4]hept-4-en-7-one]
IC50 (A2780 ovarian cells [1]): > 10000 nM
inhibition at 10 µM [2]: 98%
IC50 [2]: 229 nM
IC50 [3]: ~2570 nM
IC50 [4]: 3470 nM
IC50 [5]: 1120 nM
IC50 (A2780 ovarian cells [6]): 794 nM

O=C(C1CC1)N1CC(CN2C(=O)C3(CC3)N=C2c2ccc(-c3cccc(NS(=O)(=O)C4CC4)c3)cc2F)C1 [compound 619, N-[4′-(6-{[1-(Cyclopropylcarbonyl)azetidin-3-yl]methyl}-7-oxo-4,6-diazaspiro[2.4]hept-4-en-5-yl)-3′-fluorobiphenyl-3-yl]cyclopropanesulfonamide]
IC50 (A2780 ovarian cells [1]): > 10000 nM
inhibition at 10 µM [2]: 101%
IC50 [2]: 186 nM
IC50 [3]: 631 nM
IC50 [4]: 3240 nM
IC50 [5]: 380 nM
IC50 (A2780 ovarian cells [6]): ~224 nM

N#Cc1ccc2ccc(-c3ccc(C4=NC5(CC5)C(=O)N4CC4CN(C(=O)C5(O)CC5)C4)c(F)c3)cc2c1 [compound 621, 7-{3-Fluoro-4-[6-({1-[(1-hydroxycyclopropyl)carbonyl]azetidin-3-yl}methyl)-7-oxo-4,6-diazaspiro[2.4]hept-4-en-5-yl]phenyl}naphthalene-2-carbonitrile]
IC50 (A2780 ovarian cells [1]): 6170 nM
inhibition at 10 µM [2]: 92%
IC50 [2]: 617 nM
IC50 [3]: 437 nM
IC50 [4]: 2140 nM
IC50 [5]: 513 nM
IC50 (A2780 ovarian cells [6]): 708 nM

Cc1cc(-c2ccc(-c3ccnn3C)cc2)ccc1C1=NC2(CC2)C(=O)N1C[C@@H]1CCN(C(=O)C2(C)CC2)C1 [compound 623, 6-({(3R)-1-[(1-Methylcyclopropyl)carbonyl]pyrrolidin-3-yl}methyl)-5-[3-methyl-4′-(1-methyl-1H-pyrazol-5-yl)biphenyl-4-yl]-4,6-diazaspiro[2.4]hept-4-en-7-one]
IC50 (A2780 ovarian cells [1]): 5130 nM
inhibition at 10 µM [2]: 101%
IC50 [2]: 145 nM
IC50 [3]: 123 nM
IC50 [4]: 562 nM
IC50 [5]: 234 nM
IC50 (A2780 ovarian cells [6]): ~32.4 nM

Cc1cc(-c2ccc3c(c2)ncn3C)ccc1C1=NC2(CC2)C(=O)N1CC1CN(C(=O)C2(C)CC2)C1 [compound 627, 6-({1-[(1-Methylcyclopropyl)carbonyl]azetidin-3-yl}methyl)-5-[2-methyl-4-(1-methyl-1H-benzimidazol-5-yl)phenyl]-4,6-diazaspiro[2.4]hept-4-en-7-one]
IC50 (A2780 ovarian cells [1]): > 10000 nM
inhibition at 10 µM [2]: 105%
IC50 [2]: 107 nM
IC50 [3]: 47.9 nM
IC50 [4]: ~129 nM
IC50 [5]: 126 nM
IC50 (A2780 ovarian cells [6]): 12 nM

COc1cccc2cc(-c3ccc(C4=NC5(CC5)C(=O)N4CC4CN(C(=O)C5CC5)C4)c(F)c3)ccc12 [compound 635, 6-{[1-(Cyclopropylcarbonyl)azetidin-3-yl]methyl}-5-[2-fluoro-4-(5-methoxynaphthalen-2-yl)phenyl]-4,6-diazaspiro[2.4]hept-4-en-7-one]
IC50 (A2780 ovarian cells [1]): > 10000 nM
inhibition at 10 µM [2]: 97%
IC50 [2]: 219 nM
IC50 [3]: 355 nM
IC50 [4]: 1020 nM
IC50 [5]: 1350 nM
IC50 (A2780 ovarian cells [6]): 129 nM

Cn1ncc2cc(-c3ccc(C4=NC5(CC5)C(=O)N4CC4CN(C(=O)C5(F)CC5)C4)c(F)c3)ccc21 [compound 637, 6-({1-[(1-Fluorocyclopropyl)carbonyl]azetidin-3-yl}methyl)-5-[2-fluoro-4-(1-methyl-1H-indazol-5-yl)phenyl]-4,6-diazaspiro[2.4]hept-4-en-7-one]
IC50 (A2780 ovarian cells [1]): > 10000 nM
inhibition at 10 µM [2]: 99%
IC50 [2]: 120 nM
IC50 [3]: ~234 nM
IC50 [4]: 1820 nM
IC50 [5]: 871 nM
IC50 (A2780 ovarian cells [6]): 85.1 nM

O=C(C1CC1)N1CC(CN2C(=O)C3(CC3)N=C2c2ccc(-c3nc4cc(F)ccc4s3)cc2F)C1 [compound 638, 6-{[1-(Cyclopropylcarbonyl)azetidin-3-yl]methyl}-5-[2-fluoro-4-(5-fluoro-1,3-benzothiazol-2-yl)phenyl]-4,6-diazaspiro[2.4]hept-4-en-7-one]
IC50 (A2780 ovarian cells [1]): > 10000 nM
inhibition at 10 µM [2]: 100%
IC50 [2]: 191 nM
IC50 [3]: 479 nM
IC50 [4]: 1700 nM
IC50 [5]: 1000 nM
IC50 (A2780 ovarian cells [6]): ~195 nM
